Where two headings read alike, the source gives them in different places.

What all share (experiment): Kinase selectivity, P33-radiolabeled assay
What all share (type): biochemical
What all share (conditions): 10 μM ATP

One experiment has as its target T1, STK38/NDR1 (Homo sapiens, UniProt Q15208).
T1 construct: purchased Reaction Biology Corp
In short, it runs like this:
(§1)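 Values show % enzyme activity normalised to DMSO vehicle. They come from one 10 μM compound concentration run twice, at an ATP level of 10 μM.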

For the next experiment, the target named is T2, DCAMKL1 (Homo sapiens, UniProt O15075).
T2 construct: purchased Reaction Biology Corp
T2 sequence (O15075 1-740): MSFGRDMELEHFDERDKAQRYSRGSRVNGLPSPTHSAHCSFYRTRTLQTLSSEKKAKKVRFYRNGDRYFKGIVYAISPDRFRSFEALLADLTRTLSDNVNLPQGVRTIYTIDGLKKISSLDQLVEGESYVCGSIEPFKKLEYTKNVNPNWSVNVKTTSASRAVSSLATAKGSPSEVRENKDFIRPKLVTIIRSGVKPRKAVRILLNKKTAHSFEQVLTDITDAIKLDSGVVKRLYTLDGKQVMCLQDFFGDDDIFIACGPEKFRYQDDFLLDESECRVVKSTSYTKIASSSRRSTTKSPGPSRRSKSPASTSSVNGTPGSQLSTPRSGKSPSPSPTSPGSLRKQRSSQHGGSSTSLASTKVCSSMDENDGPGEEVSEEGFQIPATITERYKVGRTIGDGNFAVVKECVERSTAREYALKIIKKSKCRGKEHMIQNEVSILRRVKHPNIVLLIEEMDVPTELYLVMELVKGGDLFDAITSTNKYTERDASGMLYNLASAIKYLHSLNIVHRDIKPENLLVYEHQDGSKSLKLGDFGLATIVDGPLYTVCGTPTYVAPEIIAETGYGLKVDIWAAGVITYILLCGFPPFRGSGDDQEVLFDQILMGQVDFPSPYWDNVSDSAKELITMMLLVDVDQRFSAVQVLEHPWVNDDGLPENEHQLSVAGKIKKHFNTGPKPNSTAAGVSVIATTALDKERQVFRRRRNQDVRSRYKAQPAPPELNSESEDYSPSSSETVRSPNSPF
In short, it runs like this: as §1

In the next experiment the target is T3, ULK1 (Homo sapiens, UniProt O75385).
T3 construct: purchased Reaction Biology Corp
T3 sequence (O75385 1-1050): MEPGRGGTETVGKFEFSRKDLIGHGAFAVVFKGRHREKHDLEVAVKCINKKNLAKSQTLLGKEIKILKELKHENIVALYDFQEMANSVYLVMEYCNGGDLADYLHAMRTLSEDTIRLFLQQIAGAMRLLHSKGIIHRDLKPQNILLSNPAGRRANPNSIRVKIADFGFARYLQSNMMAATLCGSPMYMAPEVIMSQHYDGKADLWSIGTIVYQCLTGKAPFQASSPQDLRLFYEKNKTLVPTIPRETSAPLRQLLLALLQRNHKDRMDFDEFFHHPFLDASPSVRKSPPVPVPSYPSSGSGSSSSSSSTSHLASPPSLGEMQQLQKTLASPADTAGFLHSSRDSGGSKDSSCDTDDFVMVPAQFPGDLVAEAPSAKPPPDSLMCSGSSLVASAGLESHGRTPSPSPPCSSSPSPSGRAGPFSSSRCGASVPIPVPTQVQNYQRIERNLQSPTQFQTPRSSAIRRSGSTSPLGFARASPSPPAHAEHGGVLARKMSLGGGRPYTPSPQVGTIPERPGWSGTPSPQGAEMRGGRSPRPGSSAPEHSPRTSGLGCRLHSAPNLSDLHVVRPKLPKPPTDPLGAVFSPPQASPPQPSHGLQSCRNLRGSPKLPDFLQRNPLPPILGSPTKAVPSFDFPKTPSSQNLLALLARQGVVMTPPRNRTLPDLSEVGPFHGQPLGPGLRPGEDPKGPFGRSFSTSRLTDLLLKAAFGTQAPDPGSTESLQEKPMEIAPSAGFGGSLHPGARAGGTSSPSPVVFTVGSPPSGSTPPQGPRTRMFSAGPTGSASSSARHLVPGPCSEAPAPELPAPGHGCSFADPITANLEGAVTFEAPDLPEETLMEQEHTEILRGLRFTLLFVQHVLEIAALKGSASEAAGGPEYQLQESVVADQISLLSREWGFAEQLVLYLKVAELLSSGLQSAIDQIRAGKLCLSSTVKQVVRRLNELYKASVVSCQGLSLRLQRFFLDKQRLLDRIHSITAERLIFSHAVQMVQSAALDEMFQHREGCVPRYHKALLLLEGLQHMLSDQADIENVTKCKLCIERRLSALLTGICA
In short, it runs like this:
as §1

Another experiment concerns the target T4, STK22D/TSSK1 (Homo sapiens, UniProt Q9BXA7).
T4 construct: purchased Reaction Biology Corp
T4 sequence (Q9BXA7 1-367): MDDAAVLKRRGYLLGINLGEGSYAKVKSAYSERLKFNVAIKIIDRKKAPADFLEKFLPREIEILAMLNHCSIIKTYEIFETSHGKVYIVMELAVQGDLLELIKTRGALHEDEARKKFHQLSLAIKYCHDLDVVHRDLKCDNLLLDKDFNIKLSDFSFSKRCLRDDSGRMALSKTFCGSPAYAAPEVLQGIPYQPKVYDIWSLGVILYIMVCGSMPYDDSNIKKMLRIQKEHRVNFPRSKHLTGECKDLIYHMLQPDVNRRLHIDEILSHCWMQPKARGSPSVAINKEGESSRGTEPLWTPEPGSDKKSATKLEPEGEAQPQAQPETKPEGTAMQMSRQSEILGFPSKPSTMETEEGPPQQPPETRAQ
In short, it runs like this:
as §1

The target in another experiment is T5, MLK1/MAP3K9 (Homo sapiens, UniProt P80192).
T5 construct: purchased Reaction Biology Corp
In short, it runs like this:
as §1

The mark [1] stands for this setting: read-out: % Enzyme Activity (relative to DMSO controls) AVG.
Where [2] appears, read: read-out: % Enzyme Activity (relative to DMSO controls) Data 1.
The mark [3] stands for this setting: read-out: % Enzyme Activity (relative to DMSO controls) Data 2.

T5 sequence (P80192 whole entry): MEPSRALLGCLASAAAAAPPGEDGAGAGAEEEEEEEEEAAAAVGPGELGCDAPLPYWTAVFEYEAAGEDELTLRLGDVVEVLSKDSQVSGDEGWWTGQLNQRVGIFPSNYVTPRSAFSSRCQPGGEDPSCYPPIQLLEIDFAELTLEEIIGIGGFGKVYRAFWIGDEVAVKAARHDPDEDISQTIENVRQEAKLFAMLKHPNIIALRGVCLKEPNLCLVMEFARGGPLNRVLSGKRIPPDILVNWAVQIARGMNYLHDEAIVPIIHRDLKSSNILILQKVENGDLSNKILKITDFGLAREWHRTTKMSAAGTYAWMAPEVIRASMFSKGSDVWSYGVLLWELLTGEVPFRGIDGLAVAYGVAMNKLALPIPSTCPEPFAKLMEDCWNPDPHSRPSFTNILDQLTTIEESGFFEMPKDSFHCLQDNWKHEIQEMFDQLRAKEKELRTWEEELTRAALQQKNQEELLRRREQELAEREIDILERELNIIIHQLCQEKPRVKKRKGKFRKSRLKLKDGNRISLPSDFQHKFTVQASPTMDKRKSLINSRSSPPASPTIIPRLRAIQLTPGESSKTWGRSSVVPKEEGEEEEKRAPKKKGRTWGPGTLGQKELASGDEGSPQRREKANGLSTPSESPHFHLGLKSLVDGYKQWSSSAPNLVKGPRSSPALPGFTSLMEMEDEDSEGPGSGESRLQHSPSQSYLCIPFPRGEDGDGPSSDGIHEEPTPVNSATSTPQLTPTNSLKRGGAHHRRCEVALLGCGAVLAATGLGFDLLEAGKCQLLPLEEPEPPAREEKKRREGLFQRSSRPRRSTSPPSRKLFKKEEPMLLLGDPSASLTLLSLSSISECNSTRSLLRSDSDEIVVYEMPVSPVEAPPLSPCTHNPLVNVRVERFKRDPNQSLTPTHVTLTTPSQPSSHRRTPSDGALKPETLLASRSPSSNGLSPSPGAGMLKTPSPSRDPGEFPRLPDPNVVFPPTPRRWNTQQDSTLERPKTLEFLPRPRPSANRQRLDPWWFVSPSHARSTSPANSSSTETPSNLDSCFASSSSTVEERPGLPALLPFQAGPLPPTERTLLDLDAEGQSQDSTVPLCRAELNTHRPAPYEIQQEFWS
T1 sequence (Q15208 whole entry): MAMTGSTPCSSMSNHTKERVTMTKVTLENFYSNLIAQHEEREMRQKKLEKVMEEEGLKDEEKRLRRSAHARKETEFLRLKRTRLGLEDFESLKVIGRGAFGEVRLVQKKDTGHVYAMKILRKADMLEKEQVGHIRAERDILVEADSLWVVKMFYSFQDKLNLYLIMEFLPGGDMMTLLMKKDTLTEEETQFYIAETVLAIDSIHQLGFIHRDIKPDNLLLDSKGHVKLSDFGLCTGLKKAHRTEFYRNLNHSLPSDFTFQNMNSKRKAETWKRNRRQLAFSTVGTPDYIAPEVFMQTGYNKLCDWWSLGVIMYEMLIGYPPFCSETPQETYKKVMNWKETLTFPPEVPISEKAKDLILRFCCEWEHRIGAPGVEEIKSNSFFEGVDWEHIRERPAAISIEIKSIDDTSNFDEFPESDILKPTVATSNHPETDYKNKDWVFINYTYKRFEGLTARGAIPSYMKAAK

With `CC(C)(C)C(=O)N1N=CC[C@H]1c1ccccc1` [GSK′963], the remaining activity at 10 µM at STK38/NDR1 (setting [1]) was 102%; at STK38/NDR1 (setting [2]), 100%; at STK38/NDR1 (setting [3]), 104%; on DCAMKL1 (setting [1]) it was 92.5%; on DCAMKL1 (setting [2]), 96.2%; on DCAMKL1 (setting [3]), 88.8%. The remaining activity at 10 µM turned out to be 106% on ULK1 (setting [1]); 106% at ULK1 (setting [2]); 106% at ULK1 (setting [3]); 110% at STK22D/TSSK1 (setting [1]); 108% on STK22D/TSSK1 (setting [2]); 112% at STK22D/TSSK1 (setting [3]). Besides, the values for the remaining activity at 10 µM at MLK1/MAP3K9 (setting [1]), on MLK1/MAP3K9 (setting [2]) and on MLK1/MAP3K9 (setting [3]) were 110%, 108% and 112%, respectively.
